Measured values published in patent publication US20160237450A1, “METHOD FOR ENHANCING DROUGHT TOLERANCE IN PLANTS” (Plant Response Biotech S.L., priority 2015, published 2016).

Tests used:
Format in all cases: in vivo
[1] = test system: leek plants; test: Yield production without drought stress, leek; details: 1 g/l spray every 4 weeks for 3 months, no drought stress
Description: (§1) In order to determine the plant yield productivity under normal conditions, ‘Sabrina’, ‘Candonga’ and ‘Fortuna’ strawberry varieties, leek, lettuce, “Iceberg” variety, broccoli “Parthenon” variety, celery or kohlrabi plants, were grown under standard production conditions and 120 plants of each variety per treatment (where the treatment was a control comprising standard watering or 1 g/L of TMAO di-hydrate spray every four weeks) were analyzed. Plants were located in four (4) different positions for each group of 30 plants from the same treatment. Fruits, leaves or roots were harvested from individual plants and total weight was determined for each plant.
(§2) Root or leaves yield was determined in the plants treated with 1 g/l of TMAO di-hydrate or water as described above in order to evaluate the trade-off costs of the treatment with no drought stress.

[2] = test system: strawberry plants ('Sabrina', 'Candonga', 'Fortuna'); test: Strawberry fruit production without drought stress (trade-off); details: no drought stress; for Strawberry fruit production, % Control (2013) / Strawberry fruit production, % Control (2014): 1 g/l spray every 4 weeks for 3 months
Description: as §1
Fruit yield was determined in ‘Sabrina’, ‘Candonga’ and ‘Fortuna’ strawberry plants treated with 1 g/l of TMAO di-hydrate or water as described above in order to evaluate the trade-off costs of the treatment with no drought stress.

[3] = test system: tomato plants ('Moneymaker'); test: Tomato plant survival under extreme drought
Description: (§3) For each drought or limited water experiment 480 seeds (of either pepper, barley, tomato, cucumber or corn) were sown, producing 384 plants in 512 cm^3 pots (4 plants per pot). Plants were grown under chamber conditions at 21° C. for 3 weeks. Then, the plants were moved to a greenhouse, where average temperature was 25° C. to 28° C. Spray and irrigation treatments as described herein were done when the plants had two extended leaves and the next pair of leaves were coming up.
(§4) Treatments: Twelve pots (containing 48 plants) were irrigated with 40 ml of either: water, 0.1 g/L TMAO di-hydrate solution, 1.0 g/L TMAO di-hydrate solution, or 5.5 g/L TMAO di-hydrate solution. Another set of 12 pots containing 48 plants were sprayed with 40 ml of either water (3.3 ml in average per pot), a solution containing 0.1 g/L TMAO di-hydrate solution, 1.0 g/L TMAO di-hydrate, or 5 g/L, or 10 g/L TMAO di-hydrate. Further sets of 12 pots containing 48 plants were both sprayed with each initial solution TMAO di-hydrate solution and further irrigated with the same TMAO di-hydrate solutions used in the control water sprayed plants. All pots were also watered with 40 ml of water. The sprayed plants were watered with the same volume of water as the “irrigated plants). The pots were located on plastic glass to maintain constant moisture and to avoid liquid spillage during watering. Trays containing the pots were located on greenhouse tables. The distribution of the trays on the table and the position on the pots in the tray was changed every week to avoid position effects.
After the treatments described above, the plants were not watered until the pots completely lost their moisture, taking about 4 to 8 days depending on the season, at which point the plants were extremely wilted for the extreme drought experiments. The plants were then watered once with solutions containing the different amounts of TMAO di-hydrate (0.1 g/L, 1.0 g/L, 5 g/L, or 10 g/L) or just water, after which the plants were left to lose their moisture completely again for three consecutive cycles of watering after wilting. For the “extreme drought” experiments plants were allowed to wilt severely before watering and then the plant survival rate was recorded and analyzed.
TMAO di-hydrate applied exogenously, which increases the endogenous content of TMAO as if the plants were overexpressing an FMO protein at least 4 times, increases tomato plant survival under extreme drought conditions, where plants were allowed to fully wilt after three water-wilt cycles. Moneymaker tomato seeds were sown, grown and treated as described above. No statistical differences between modes of application (sprayed or TMAO di-hydrate watered) were observed on this experiment.

[4] = test system: garlic plants; test: Yield production without drought stress, garlic; details: 1 g/l spray every 4 weeks for 3 months, no drought stress
Description: as §2

[5] = test system: lettuce plants (Iceberg); test: Yield production without drought stress, lettuce; details: 1 g/l spray every 4 weeks for 3 months, no drought stress
Description: as §1, §2

[6] = TMAO accumulation in barley leaves after spray (NMR); details: 1 g/l spray formulated with 0.1% C8-C10 Alkylpolysaccharide, 1 day post spray
Description: At least three independent plants were treated per experiment.
Leaves were harvested and TMAO was determined by NMR.

[7] = test system: celery plants; test: Yield production without drought stress, celery; details: 1 g/l spray every 4 weeks for 3 months, no drought stress
Description: as §1, §2

[8] = test system: barley plants ('Bomi'); test: Barley dry weight under drought
Description: as §3, §4
After the treatments described above, the plants were not watered until the pots completely lost their moisture, taking about 4 to 8 days depending on the season, at which point the plants were extremely wilted for the extreme drought experiments. […] For the “extreme drought” experiments plants were allowed to wilt severely before watering and then the plant survival rate was recorded and analyzed. […]

[9] = test system: Arabidopsis thaliana plants (Col-0); test: Drought fitness of wild type Arabidopsis sprayed with TMAO di-hydrate; details: Col-0 sprayed 1 g/L after first wilting cycle, scale 0 dead to 4 healthy
Description: Transgenic FMO3X and FMO8X genotypes and wild type Col-0 seeds of Arabidopsis thaliana were sown, grown and treated as described above. For the control group of both wild-type and transgenic plants, six week old plants were irrigated with 40 ml of water twice in the week, while “drought” treated plants of both wild-type and transgenic plants were not irrigated until all the plants were wilted.
After the first cycle of wilting wild type plants were sprayed with 1 g/L TMAO di-hydrate to determine if the wilted wild type plants could recover and perform as well as the transgenic plants in the following cycles of wilting. Fitness values were assigned using the following criteria: 0: Dead plant; 1: Critically damaged plant symptoms; 2: Moderate damaged plant symptoms; 3: Slightly damaged plant symptoms; and 4: Healthy plant.

C[N+](C)(C)[O-].O.O [TMAO di-hydrate, trimethylamine N-oxide di-hydrate]
Yield production, % Control [1]: 102%
difference in fruit production versus water-treated plants ([2]; 1 g/l): no significant difference
Strawberry fruit production, % Control (2013) ([2]; Candonga): 102%
Strawberry fruit production, % Control (2014) ([2]; Candonga): 106%
Strawberry fruit production, % Control (2013) ([2]; Fortuna): 101%
Strawberry fruit production, % Control (2014) ([2]; Fortuna): 105%
Strawberry fruit production, % Control (2013) ([2]; Sabrina): 106%
Strawberry fruit production, % Control (2014) ([2]; Sabrina): 115%
Strawberry fruit production, % Control (2013) ([2]; Total of varieties): 105%
Strawberry fruit production, % Control (2014) ([2]; Total of varieties): 111%
appearance of treated plants compared to untreated control ([3]; irrigated with 5.5 g/L, 24 hours after drought recovery (FIG. 9)): extremely healthy
SURVIVAL RATE (%) ([3]; irrigation 0.1 g/L, initial spray 0.1 g/L): 12.5 ± 8.5%
SURVIVAL RATE (%) ([3]; irrigation 0.1 g/L, initial spray 1 g/L): 41.6 ± 8.5%
SURVIVAL RATE (%) ([3]; irrigation 0.1 g/L, initial spray 5 g/L): 68.9 ± 8.5%
SURVIVAL RATE (%) ([3]; irrigation 0.1 g/L, initial spray water): 16.6 ± 8.5%
SURVIVAL RATE (%) ([3]; irrigation 1 g/L, initial spray 0.1 g/L): 0.0 ± 7.5%
SURVIVAL RATE (%) ([3]; irrigation 1 g/L, initial spray 1 g/L): 29.1 ± 7.5%
SURVIVAL RATE (%) ([3]; irrigation 1 g/L, initial spray 5 g/L): 33.3 ± 7.5%
SURVIVAL RATE (%) ([3]; irrigation 1 g/L, initial spray water): 4.1 ± 7.5%
SURVIVAL RATE (%) ([3]; irrigation 5 g/L, initial spray 0.1 g/L): 12.5 ± 8.0%
SURVIVAL RATE (%) ([3]; irrigation 5 g/L, initial spray 1 g/L): 16.6 ± 8.0%
SURVIVAL RATE (%) ([3]; irrigation 5 g/L, initial spray 5 g/L): 50.0 ± 8.0%
SURVIVAL RATE (%) ([3]; irrigation 5 g/L, initial spray water): 8.3 ± 8.0%
SURVIVAL RATE (%) ([3]; irrigation all regimes, initial spray 0.1 g/L): 12.5 ± 4.1%
SURVIVAL RATE (%) ([3]; irrigation all regimes, initial spray 1 g/L): 37.5 ± 4.1%
SURVIVAL RATE (%) ([3]; irrigation all regimes, initial spray 5 g/L): 56.6 ± 4.1%
SURVIVAL RATE (%) ([3]; irrigation water, initial spray 0.1 g/L): 29.1 ± 9.1%
SURVIVAL RATE (%) ([3]; irrigation water, initial spray 1 g/L): 62.5 ± 9.1%
SURVIVAL RATE (%) ([3]; irrigation water, initial spray 5 g/L): 74.2 ± 9.1%
Yield production, % Control [4]: 109%
Yield production, % Control [5]: 112%
TMAO % Control [6]: 822%
TMAO (μM) in leaves [6]: 4633.2 µM
Yield production, % Control [7]: 100%
AVERAGE DRY weight ± S.E. ([8]; initial treatment 1 g/L sprayed, irrigations water, three cycles of wilt-watering): 1205.4 ± 60.37 mg
AVERAGE DRY weight ± S.E. ([8]; initial treatment 1 g/L watered, irrigations water, three cycles of wilt-watering): 1371.4 ± 66.13 mg
AVERAGE DRY weight ± S.E. ([8]; no initial treatment, irrigations 1 g/L): 1216.1 ± 33.44 mg
Mean Fitness Value ± S.E. [9]: 1.83 ± 0.21
